Patent US20250324966A1, “ADDITIVE FOR PRESERVING CELLS, TISSUE AND/OR FOOD” (Proteimax Bio Technology Israel LTD, priority 2021, published 2025)

Columns and labels:
[1] = system: fresh strawberries; experiment: Preservation of strawberries against fungal contamination, single topical application; conditions: 100 μM peptide in water
Procedure: (§1) The peptide of SEQ ID NO: 3, which comprises pep5 (SEQ ID NO: 1) and the cell-penetrating peptide (SEQ ID NO: 2), was prepared in a 100 μM solution in water, for direct topical use on the food to be preserved.
The peptide of SEQ ID NO: 15, which comprises the peptide of SEQ ID NO: 9 and the cell penetrating peptide of SEQ ID NO: 2, was prepared in a 100 μM solution in water, for use in the food or plant to be preserved.
The additive prepared according to example 1 was used in experiments for food preservation by single topical application.
The results of groups of 10 strawberries in each condition (test and control) at 0, 12, 24, 36, 48 and 60 h, respectively in A, B, C, D, E and F are shown.

[2] = system: fresh strawberries; experiment: Preservation of strawberries against rot at 4° C.; conditions: 100 μM peptide in water, kept at 4° C., 5 days; intense rot visible in untreated group; FIG. 3 D
Procedure: as §1
A new experiment with strawberries, now with the test and control groups being kept at a temperature of 4° C.
Representative results of strawberries in each condition (test and control) at 0 h, 24 h, 48 h and 5 days, respectively in A, B, C and D are shown.

[3] = system: bean seeds; experiment: Modulation of the germination rate of bean seeds; parameters: species or system black bean; conditions: single dose 100 μM in water, moist cotton, vs water
Procedure: To evaluate the effects of the additive of the invention in the modulation of cell division or multiplication in plants, particularly in the modulation of seed germination and/or plant development, an experiment aimed at observing the germination of bean seeds and the subsequent development of seedlings was conducted. Groups of groups of 14 black bean seeds were placed in moist cotton, each group in one condition: control, with application of water; and test, with application of the additive of the invention as described below. The state of the seeds was observed and documented at times 0, 3 and 4, and the pattern and profile of germination of the beans were analyzed.
The results of germination of groups of 14 seeds in moist cotton in each condition (control and test) in 0, 3 and 4 days, respectively in A, B and C are shown.

[4] = system: roses; experiment: Preservation of post-harvest flowers (roses), stems submerged in additive; parameters: species or system Rosa; conditions: single dose 100 μM in water, room temperature (28° C.), 0, 3 and 6 days, vs H2O, FIG. 6
Procedure: (§2) In this context, as an experimental model to evaluate the preservation of flowers or inflorescences, two different types of flowers and their degradation/preservation profile were evaluated through incubation with water or with a solution of the preservation additive of the invention, keeping the flowers in room temperature for a few days.
(§3) The chosen flowers were the rose (Rose-red) and the Gerbera (Gerbera). Species of the genus Rosa are among the most ornamental flowers cultivated in the world. Species of the genus Gerbera are used as an experimental organism in studies of flowering and flower meristematic development, and because they contain natural coumarin derivatives, they are flowers of phytochemical interest and biological control.
(§4) In this embodiment, the peptide of SEQ ID NO: 15, which comprises the peptide of SEQ ID NO: 9 and the peptide of SEQ ID NO: 2, was used.
(§5) Four flowers were used in each container, the stems being kept submerged with at least 5 cm of the respective liquid during the test period. Aluminum foil was used around the container where the stems were submerged, to protect from the incidence of light. Photographic results of flowers kept in each condition (control and test) at 0, 3 and 6 days are shown. […]

[5] = system: Gerberas; experiment: Preservation of post-harvest flowers (Gerberas), stems submerged in additive; parameters: species or system Gerbera; conditions: single dose 100 μM in water, room temperature (28° C.), 0, 3 and 6 days, vs H2O, FIG. 6
Procedure: as §2, §3, §4, §5

| Substance | fruit preservation (visual results, percentage of spoiled fruits) ([1]; single application, 0-60 h, vs water control, FIGS. 1 and 2) | presence of a fungus with white hyphae on strawberries ([1]; single topical application, FIG. 1 D and E (36 and 48 h), visible in water control) | presence of intense rot in strawberries [2] | seed germination process (number of bean seeds germinated) ([3]; room temperature (28° C.), 0, 3 and 4 days, FIGS. 4 and 5) | metabolic state of the shoots or seedlings ([3]; room temperature (28° C.)) | preservation of flowers (roses), visual [4] | preservation of flowers (Gerberas), visual [5] |
| --- | --- | --- | --- | --- | --- | --- | --- |
| SEQ ID NO: 3: peptide containing the peptide of SEQ ID NO: 1 (WELVVLGKL) and the cell-penetrating peptide of SEQ ID NO: 2 (YGRKKRRQRRR) in the C-terminal region (WELVVLGKLYGRKKRRQRRR) | great potential for fruit preservation | not detectable | not detectable | delay in the seed germination process | substantial modulation |  |  |
| SEQ ID NO: 15: peptide containing the peptide of SEQ ID NO: 9 and the cell-penetrating peptide of SEQ ID NO: 2 (WELVVLYGRKKRRQRRR) |  |  |  |  |  | effective preservation | effective preservation |
